What was measured:
[1] = tested on: E. coli CCUG31246; test: DiSC(3)5 microscopy (membrane potential); format: cell-based; conditions: 1× MIC of peptide, polymyxin B 10 μg/mL; 10 min; 0.5 μM DiSC(3)5
Source text: Propidium iodide is a large organic molecule that is not suitable to detect smaller ion-conducting pores or channels induced by antimicrobials. To assess whether the peptides may form smaller membrane pores sufficient for the passage of ions, we tested their effects on the membrane potential using the fluorescence probe DiSC(3)5.[40] This dye accumulates in the cell membrane in a membrane potential-dependent manner and disassociates, when the membrane potential is dissipated. […] This effect can be clearly seen with polymyxin B (Figure 7b).
The membrane potential of E. coli CCUG31246 and E. coli MC4100 carrying pABCON2-fhuA ΔC/Δ4L was measured by DiSC(3)5 microscopy according to ref. ([40]) with minor modifications. Cells were grown in 1:10 BHI containing 50 μg/mL bovine serum albumin to an OD600 of 0.3 prior to antibiotic treatment with the respective peptides for 10 and 60 min. Samples were stained with 0.5 μM DiSC(3)5 for 15 min (added 5 min before adding antibiotics for the 10 min time point and after 45 min of antibiotic treatment for the 60 min time point). Stained samples were spotted on 1.2% agarose, sealed with a gene frame, and imaged immediately. Microscopy was performed as described above, and fluorescence intensity was analyzed with the same parameters used for propidium iodide detection.

[2] = tested on: E. coli CCUG31246; format: cell-based; conditions: 1:10 BHI; 5 × 10^5 CFU/mL; 37 °C, 16 h; highest concentration 512 μg/mL; median, n = 3
Procedure: MICs were performed under the same growth conditions used for mode of action analysis following the guidelines issued by the Clinical Laboratory Standardization Institute (CLSI) with slight modifications. Serial two-fold dilutions of the peptides were prepared in 1:10 BHI in a sterile 96-well plate and subsequently inoculated with 5 × 10^5 CFU/mL of E. coli CCUG31246. […] The following MICs were obtained: C3: 512 μg/mL, L3: 64 μg/mL, and L3-K: 128 μg/mL. These concentrations were used for all mechanistic experiments. Polymyxin B was used as a positive control in all assays at a final concentration of 10 μg/mL.

[3] = tested on: E. coli CCUG31246; test: Propidium iodide staining (pore formation); format: cell-based; conditions: 1× MIC of peptide, polymyxin B 10 μg/mL; 10 and 60 min
Procedure: Due to the overall similarity of the peptides’ cytological profiles to that of polymyxin B, we further tested their ability to form pores in the cell membrane. To this end, we used the fluorescence probe propidium iodide, which cannot cross intact membranes but can enter cells through pores of sufficient size.[39]
Pore formation was investigated with the fluorescence dye propidium iodide as described previously[56] with minor modifications. E. coli CCUG31246 was grown to an OD600 of 0.3 and subsequently treated with different peptides for 10 and 60 min. Samples were stained with 1 μg/mL propidium iodide for 15 min (added 5 min before adding antibiotics for the 10 min time point and after 45 min of antibiotic treatment for the 60 min time point), spotted on 1.2% agarose films, and sealed with a gene frame. Microscopy was performed as described above. The fluorescence intensity of the different samples was analyzed with MicrobeJ. For detection of bacterial cells from phase contrast images, parameters were set to an area of 1.5-max, length of 1-max, width 0.5–2.5, curvature 0–1.5, and an angularity of 0–0.5. Fluorescence intensity parameters were set to an area of 1.5-max, length of 1-max, and width 0.5–2.5. All other parameters remained at default settings.

[4] = tested on: Escherichia coli (CCUG 31246); test: Minimum microbicidal concentration (MMC99) assay; format: cell-based, E. coli; conditions: BHI diluted 1/100, 37 °C, median, n = 3
Procedure: The microbicidal activity of the synthetic peptides was assessed against S. aureus (ATCC 12600; American Type Culture Collection, Manassas, VA, USA), Escherichia coli (CCUG 31246; Culture Collection, University of Gothenburg, Sweden), and Candida albicans (ATCC 64549/CCUG31028) using an MMC assay, as described previously by […] et al. (specific details in Supporting Information, pages 10, 11).[28] The assay was performed in BHI diluted 1/100 (BHI100). […] page 11: Table S5. Energy and structural ensembles of synthesized peptides. […] Energy -3887.06 -3620.88 -4968.42 -2163.76 -2646.75 Van der Waals solv. Energy 117.32 91.57 183.20 -88.88 -139.89 Mean RMSD* (Å), mean±SD […] Heavy atoms 1.87 ± 0.33 1.77 ± 0.50 0.98 ± 0.34 0.63 ±0.22 2.88 ±0.62 MMC99 activity including salt stability measurements Antimicrobial activity of L2 and L3 in the presence of NaCl. 1Table S6. Peptide MMC99 (μg/ml) sin NaCl S. aureus E.coli C. albicans (mM) 2[…] 0 50 25 25 85 - - - - - - >200 >200 >200 150 - - - - - - >200 >200 >200 3L 0 12.5 12.5 25 12,5 6.3 6.3 12.5 6.3 12.5 […] 150 >400 >400 (-)2 >400 >400 >400 >200 >200 >200 […] or 150 mM NaCl. L2 and L3 were serially diluted in twofold steps with a starting dilution of 200 μg/ml […] All sample dilutions were run in duplicates (L2) or triplicates (L3). 2 The growth of S. aureus at 24 h in BHI 100 with 85 or 150 mM NaCl was reduced. Minimum microbicidal concentration (MMC), killing 99% of the inoculum. All microorganisms were cultured in brain-heart infusion broth (BHI) overnight on a shaker at 37°C. The cultures were thereafter transferred to fresh BHI broth in volumes constituting 10% of total, and incubated for an additional 2 h to reach exponential growth phase. The bacterial cultures were washed once in BHI diluted 1/100 (BHI100), followed by resuspension in BHI100. The cell suspensions were diluted to a density of […] (bacteria) or 2x10^7 CFU/ml (yeast), as estimated by optical density measurement at 590 nm. […] Serum stability Figure S 133. […] A) peptide L2 B) peptide L3. C) peptide L3-K. D) peptide C3.

[5] = tested on: E. coli CCUG31246; test: Bacterial cytological profiling (DAPI, FM4-64, phase contrast); format: cell-based; conditions: polymyxin B 10 μg/mL
Procedure: To gain insight into the peptides’ antimicrobial mechanisms, bacterial cytological profiling was performed. This live-cell imaging method makes use of different fluorescent dyes and protein fusions together with phase contrast microscopy to assess the phenotype of bacterial cells after antibiotic treatment.[33] Single-cell analysis then gives insight into the extent and population heterogeneity of the observed phenotypic effects. In this study, we used the DNA dye DAPI and the membrane dye FM4-64 and analyzed the effects of the compounds on cell length, nucleoid compaction, and membrane morphology (Figures 6 and S15). […] In the preparation of mechanistic studies, MICs were determined. […]
Bacterial cytological profiling was performed according to Wenzel et al.[34] […] Stained samples were spotted on 1.2% agarose films, sealed with a gene frame, and immediately imaged using a Nikon Eclipse Ti2 inverted fluorescence live-cell imaging system equipped with a CFI Plan Apochromat DM Lambda 100X Oil objective (N.A. = 1.45 and W.D. = 0.13 mm), a Photometrics, PRIME BSI camera, a Lumencor Sola SE II FISH 365 light source, and an Okolab temperature incubation chamber. Images were obtained using the NIS elements AR software version 5.21.03 and were processed and analyzed with ImageJ.[53] Quantification of microscopy images was performed using the ImageJ plugins ObjectJ[54] and MicrobeJ.[55] […]

## polymyxin B [PolB, reference compound]
[1]
  membrane potential, DiSC(3)5 fluorescence, 10 min: clear and immediate reduction in the DiSC(3)5 fluorescence intensity
[2]
  E. coli MIC: 2.3 µg/mL
[3]
  propidium iodide uptake: near-instantaneous uptake of the dye throughout the bacterial population
[4]; 2 h
  E. coli MMC99 2 h: <1.6 µg/mL
[4]; 6 h
  E. coli MMC99 6 h: <1.6 µg/mL
[4]; 24 h
  E. coli MMC99 24 h: <1.6 µg/mL
[5]
  cells with unstained (reduced FM4-64 membrane stain) phenotype after 10 min: over 90%
